These results are taken from PubChem BioAssay AID179 (DTP/NCI, 2004).

Broadly, the pEC50 is the negative decadic logarithm of the EC50, by convention in mol/L. By pIC50 is commonly meant the IC50 on a negative log10 scale, so that one unit is a factor of ten. Higher therefore signals a low IC50.

The test system of the assay is CEM cells HIV-1 protection, formazan growth assay. As to the kind of experiment: NCI AIDS Antiviral Assay. The settings on record: for pIC50: measured here: growth of uninfected CEM cells. The method, boiled down:
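CEM (human) cells, HIV-1 infected vs uninfected, 5-point dosing, formazan growth read-out. Retest threshold 50% protection.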

pEC50, pIC50: −log10 of the molar value. Where “and” joins values, the source holds several entries; their conditions need not be identical. Equal values may be shown once. Calls of active or inactive are those of the source.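 The calls were made as follows: active = compounds giving half or more protection of infected cells from virus-caused growth loss, again on retest; inactive = the rest.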

On to `O=C(Nc1c(Cl)cc([N+](=O)[O-])cc1Cl)/C(=N\Nc1cccc(Cl)c1)c1c(O)c2ccccc2oc1=O`, for which the pEC50 is below 4.61 and the pIC50 is below 4.61.
As for `COC(=O)C12C3C4C1C1C2C3C41C(=O)N(C(C)C)C(C)C` (stereo not drawn), the pEC50 was below 3.06 and the negative logarithm of the IC50 (pIC50) was below 3.06.
`CC(C)[C@@H]1ON1C(C)c1ccccc1` (stereo partly drawn): the pEC50 is below 3.70 and the pIC50 is below 3.70.
As to `CCOP(=O)(OCC)/C(C#N)=C/c1ccc(Cl)cc1`, the pEC50 was below 3.50 and the pIC50 was 3.71.
Turning to `CC(C)(C)C(=O)/C=C/c1ccc(C#N)cc1`, the outcome was inactive and the pIC50 was 4.41.
For the molecule `CC(C)CCCC(C)[C@H]1CC[C@H]2[C@@H]3CC[C@H]4C[C@@H](CCC=C(c5cc(Cl)c(O)c(C(=O)OC(C)(C)C)c5)c5cc(Cl)c(O)c(C(=O)OC(C)(C)C)c5)CC[C@]4(C)[C@H]3CC[C@]12C` (stereo partly drawn), the pEC50 was below 4.30 and the pIC50 was below 4.30.
For `CCN1C(c2ccc(Cl)cc2)=NN2C(C)=CC(C)(C)N=C12`, the pEC50 is below 4.07 and the pIC50 was 4.22.
In the same order, the values of `CN(C)c1nc(=NCc2ccccn2)ss1` are below 4.76 and 5.03.
Taken in the same sequence, the figures for `CC(=O)Nc1ccc(-c2nnc(SCC(=O)Nc3ccccc3)o2)cc1` were below 4.43 and 4.68.
With `O=C(O)C1(C(=O)O)CCC1.[NH2-].[NH2-].[Pt+2]`, the pEC50 was below 3.47 and the pIC50 was 5.10.
For the molecule `CCc1ccccc1NNc1cc(=O)[nH]c(=O)[nH]1`, the pEC50 is below 3.70 and the pIC50 is 4.56.
In the same order, the values of `CC1(C)O[C@H](C(=O)O)[C@@H](C(=O)O)O1` are below 3.70 and below 3.70.
In the same order, the values of `CCCCC1SC2=NCCN2C1(O)c1ccc(Cl)cc1` (stereo not drawn) are below 3.70 and 3.99.
In the same order, the values of `COc1cc(O)c2c(c1)O[C@H](C)C(C)C2=O` (stereo partly drawn) are below 3.70 and below 3.70.
Consider `O=C(CCCN1CCC2(CC1)C(=O)NCN2c1ccc(F)cc1)c1ccc(F)cc1`, for which the pEC50 is below 3.70 and the pIC50 was below 3.70.
Regarding `NC(CCC(=O)NC(CSSCC(NC(=O)CCC(N)C(=O)O)C(=O)O)C(=O)O)C(=O)O` (stereo not drawn), the pEC50 is below 3.70 and the pIC50 was below 3.70.
Take `CSC1=NC(C(N)=O)C(N)N1C` (stereo not drawn): the pEC50 was below 3.70 and the pIC50 is below 3.70.
In the case of `CCN(CC)CCN(C(=O)C(C)(C)C)c1ccccc1N`, the pEC50 is below 3.70 and the negative logarithm of the IC50 (pIC50) was below 3.70.
Consider `[O]=[W](=[O])([OH])[OH]`, for which the outcome was inactive.
Take `COc1ccc(C(=O)c2ccccc2)c(O)c1`: the pEC50 is below 3.70 and the pIC50 is below 3.70.
As to `CC(=O)C(CN1C(=O)c2ccccc2C1=O)C(C)=O`, the pEC50 is below 4.41 and the pIC50 was below 4.41.
For `NNC(=O)CCc1c[nH]c2ccccc12`, the pEC50 was below 2.91 and the pIC50 was 3.18.
Turning to `N#CCCN(C1=NN(C(=O)CC(=O)Nc2ccccc2Cl)C(c2ccccc2)C1)c1ccccc1Cl` (stereo not drawn), the pEC50 is below 4.44 and the pIC50 is below 4.44.
On to `ClCCc1ccccc1CC1=NCCc2ccccc21`, for which the pEC50 is below 3.70 and the pIC50 was 4.44.
With `OCn1nnc2ccccc21`, the outcome was inactive.
`COc1ccc(-c2c3nc(c(-c4ccc(OC)cc4)c4[n-]c(c(-c5ccc(OC)cc5)c5nc(c(-c6ccc(OC)cc6)c6[n-]c2c2ccccc62)-c2ccccc2-5)c2ccccc42)-c2ccccc2-3)cc1.[Zn+2]`: the pEC50 is below 4.30 and the negative logarithm of the IC50 (pIC50) is below 4.30.
For `O=C1c2cc(Oc3ccccc3)c(S(=O)(=O)O)c(S(=O)(=O)O)c2C(=O)c2c(O)ccc(O)c21`, the pEC50 is below 3.70 and the pIC50 was 4.14.
In the same order, the values of `CC(=O)Oc1cc(/C=C(\C#N)C(=O)NCCCCNC(=O)/C(C#N)=C/c2cc(OC(C)=O)c(OC(C)=O)c(OC(C)=O)c2)cc(OC(C)=O)c1OC(C)=O` are below 3.70 and 4.66.
Taken in the same sequence, the figures for `COc1ccc2c(c1C)C(=O)C(O)(CC=C(C)C)O2` (stereo not drawn) were below 3.70 and 4.37.
Regarding `O=C1c2cccnc2-c2nccc3c2c1nc1cc(Br)ccc13`, the pEC50 was below 5.57 and the pIC50 was 6.88.
Consider `Cc1cccc2c(O)cc(=O)oc12`, for which the result was inactive.
For the molecule `COc1ccc2oc(=O)c(-c3csc(-c4ccccc4)n3)cc2c1`, the outcome was inactive.
Take `CC1=NN(C(=O)c2ccc(Cl)cc2)C(=O)/C1=C/c1cccc(O)c1`: the pEC50 is below 5.10 and the pIC50 is below 5.10.
On to `Cc1ccc2c(c1)C(=O)CC=C(C(=O)O)N2`, for which the pEC50 is below 3.70 and the pIC50 is below 3.70.
Regarding `COc1cc2c(cc1OC)CN1CCc3cc(OC)c(OC)cc3[C@@H]1C2`, the pEC50 was below 3.70 and the pIC50 is 3.84.
In the same order, the values of `N#Cc1nc(Cc2cccs2)oc1N` are below 3.70 and below 3.70.
In the same order, the values of `CN(NC(=O)Nc1cccc2ccccc12)c1ccccc1` are below 4.61 and below 4.61.
For `CC(=O)O[C@H]1C(=O)[C@@]2(C)[C@H]([C@H](OC(=O)c3ccccc3)[C@]3(O)C[C@H](OC(=O)[C@H](O)[C@@H](NC(=O)c4ccccc4)c4ccccc4)C(C)=C1C3(C)C)[C@]1(OC(C)=O)CO[C@@H]1C[C@@H]2O`, the pEC50 was below 6.38 and the pIC50 was 7.87.
Regarding `C[N+](C)(C)CC(=O)N/N=C(/CC1OC(=O)c2ccccc21)c1ccccc1O` (stereo not drawn), the pEC50 was below 3.92 and the pIC50 was 4.11.
In the same order, the values of `Cc1ccc(NC(=O)c2cc3ccccc3c(N=Nc3cc(S(=O)(=O)O)ccc3O)c2O)c(C)c1` are 6.08 and 5.37.
In the same order, the values of `CCOC(=O)CC1(O)C(=O)N(Cc2ccccc2)c2ccccc21` (stereo not drawn) are below 3.70 and below 3.70.
With `OC1CC(O)O[C@H](c2ccccc2)C1` (stereo partly drawn), the outcome was inactive.
For `Nc1nc2c(ncn2C2CCC(CO)O2)c(=O)n1C(=O)c1ccccc1` (stereo not drawn), the pEC50 was 4.43 and the pIC50 is below 4.00.
Consider `O=C1CCCC2COc3ccc(O)c1c32` (stereo not drawn), for which the outcome was inactive.
For `COC(=O)C1=C(C(=O)OC)C(C(=O)OC)N2C=CC=CC2=C1C(=O)OC` (stereo not drawn), the pEC50 was below 3.70 and the pIC50 was below 3.70.
In the case of `CCCCCCCCCc1nn2c(Cc3ccccc3)nnc2s1`, the pEC50 was below 3.70 and the pIC50 is 4.44.
For the molecule `Cc1ccc(N=N/C(=N/NC(=O)c2cc(Cl)ccc2O)c2ccc(N(CCC#N)CCC#N)cc2C)cc1`, the pEC50 was below 3.70 and the pIC50 is 4.97.
In the case of `CC(=O)OC1COC(n2c(N)c(C#N)c(-c3ccccc3)c(C#N)c2=S)C(OC(C)=O)C1OC(C)=O` (stereo not drawn), the pEC50 was below 3.70; the pIC50 was 4.47 and 4.44.
`CC1=C(C#N)C(=O)N(/N=C/c2ccc(Cl)cc2)C(=O)/C1=c1\o/c(=C2/C(=O)N(/N=C/c3ccc(Cl)cc3)C(=O)C(C#N)=C2C)c2nccnc12`: the pEC50 is below 3.70 and the pIC50 is 3.96.
Taken in the same sequence, the figures for `N#C/C(=C\c1ccccc1)c1ccc(Cl)cc1` were below 3.70 and 4.24.
Taken in the same sequence, the figures for `CCC(=O)C(C)C1=Nc2nnc(CCCCCCCc3nnc4n3C(=O)C(C(C)C(=O)CC)=N4)n2C1=O` (stereo not drawn) were below 5.97 and below 5.97.
Taken in the same sequence, the figures for `CCCCCCCCCCCOc1ccc(C(=O)C(=O)c2ccc(OCCCCCCCCCCC)c(OCCCCCCCCCCC)c2)cc1OCCCCCCCCCCC` were below 4.98 and below 4.98.
For `CSc1nc(SC)c2ncn(C3CC(Oc4ccc(C)cc4)C(COc4ccc(C)cc4)O3)c2n1` (stereo not drawn), the pEC50 is below 4.00 and the pIC50 is 4.18.
Taken in the same sequence, the figures for `O=C(/C=C\c1cccc2ccccc12)c1cccc2ccccc12` were below 5.05 and below 5.05.
Taken in the same sequence, the figures for `COC1/C=C/OC2(C)Oc3c(C)c(O)c4c(O)c(c(/C=N/N5C(C)CN(Cc6ccccc6O)CC5C)c(O)c4c3C2=O)NC(=O)/C(C)=C\C=C\C(C)C(O)C(C)C(O)C(C)C(OC(C)=O)C1C` (stereo not drawn) were below 3.70 and 5.02.
Taken in the same sequence, the figures for `Cc1ccc2c(c1)C(=O)/C(=C\c1ccccc1)CCS2(=O)=O` were below 3.70 and 5.54.
As for `CCOC(=O)C1C(=O)CC(C)(O)C(C(=O)OCC)C1c1ccc(O)c(OC)c1` (stereo not drawn), the pEC50 is below 3.70 and the pIC50 is below 3.70.
Take `CN(/N=C\c1ccc2ccccc2c1)C1=NCCCN1`: the pEC50 is below 3.70 and the pIC50 is 5.00.
Regarding `CCOP(=O)(OCC)C(=Cc1ccccc1)P(=O)(OCC)OCC`, the pEC50 is below 3.18 and the pIC50 was 3.40.
Consider `O=c1[nH]c2c3ccccc3ccc2c2cc3c(cc12)OCO3`, for which the outcome was inactive.
As to `Cc1ccc(S(=O)(=O)SS(=O)(=O)c2ccc(C)cc2)cc1`, the pEC50 is 4.86 and the pIC50 is 4.28.
For `CCNC(=O)c1c(O)c2ccccc2[nH]c1=O`, the pEC50 is below 3.70 and the pIC50 was below 3.70.
Regarding `C#CCN(C(=O)C(F)(F)F)C(/C=C\C(=O)OC)(C(=O)OCC)C(=O)OCC`, the pEC50 was below 3.70 and the pIC50 was 4.08.
In the same order, the values of `O=C(/C=C\c1ccc(Cl)c(Cl)c1)c1ccccc1` are below 3.70 and 5.00.
As for `O=C1N(C2CCCCC2)C(=O)N1C1CCCCC1`, the pEC50 is 5.08 and the pIC50 is 4.75.
In the same order, the values of `O=C(O)c1ccc(Nc2nc3ccccc3nc2-c2cccs2)cc1` are below 3.70 and 4.22.
Taken in the same sequence, the figures for `CCOC(=O)/C(=C\c1ccc(Cl)cc1)P(=O)(OCC)OCC` were below 4.82 and 4.85.
For the molecule `CC(=O)OCC1OC(n2c(=S)n(-c3ccc(C)cc3)c(=O)c3ccccc32)C(OC(C)=O)C(OC(C)=O)C1OC(C)=O` (stereo not drawn), the pEC50 is below 4.50 and the pIC50 was below 4.50.
Turning to `CCN(CC)C1Oc2cc3c(cc2C(c2cccc(OC)c2O)C1C)OCO3` (stereo not drawn), the pEC50 is below 3.70 and the pIC50 is 5.42.
Taken in the same sequence, the figures for `O=C(CCn1[nH]c(=O)c(Cl)c(Cl)c1=O)NOCCCc1ccccc1` were below 3.19 and below 3.19.
